Reference: patent US20250059217A1, “HETEROCYCLIC COMPOUNDS AND METHODS OF PREPARATION THEREOF” (priority 2021, published 2025)
Structures can show the parent of a compound that is named as a salt. Where two headings read alike, the source gives them in different places.

Key:
5-HT2A receptor = molecular target: T1, 5-HT2A receptor (Homo sapiens, UniProt P28223); assay: Serotonin receptor 5-HT2 functional assay (Gq dissociation BRET or Gq-dependent calcium flux), 5-HT2A; assay type: cell-based; settings: for 5-HT2A BRET Eff %: efficacy relative to 4-hydroxytryptamine
T1 construct: expressed in transfected cells; host or cells: HEK293T
T1 sequence (P28223 whole entry): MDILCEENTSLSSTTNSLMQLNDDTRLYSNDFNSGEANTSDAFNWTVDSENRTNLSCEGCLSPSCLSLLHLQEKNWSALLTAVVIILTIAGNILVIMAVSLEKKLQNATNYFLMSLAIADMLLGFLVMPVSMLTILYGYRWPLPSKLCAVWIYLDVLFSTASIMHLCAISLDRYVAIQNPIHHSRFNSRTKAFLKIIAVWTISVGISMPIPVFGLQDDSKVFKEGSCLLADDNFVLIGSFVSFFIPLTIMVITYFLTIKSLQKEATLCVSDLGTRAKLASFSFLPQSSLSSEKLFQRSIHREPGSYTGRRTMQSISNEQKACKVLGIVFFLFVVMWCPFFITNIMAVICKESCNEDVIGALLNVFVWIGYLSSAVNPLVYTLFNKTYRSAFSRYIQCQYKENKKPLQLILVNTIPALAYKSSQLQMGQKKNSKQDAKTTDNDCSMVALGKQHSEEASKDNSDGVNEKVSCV

5-HT2B receptor = molecular target: T2, 5-HT2B receptor (Homo sapiens, UniProt P41595); assay: Serotonin receptor 5-HT2 functional assay (Gq dissociation BRET or Gq-dependent calcium flux), 5-HT2B; assay type: cell-based; settings: Table 4, at least three replicate trials; for 5-HT2B BRET Eff %: efficacy relative to 4-hydroxytryptamine; for 5-HT2B BRET EC50 (nM) / EC50: relative to 4-hydroxytryptamine
T2 construct: expressed in transfected cells; host or cells: HEK293T
T2 sequence (P41595 whole entry): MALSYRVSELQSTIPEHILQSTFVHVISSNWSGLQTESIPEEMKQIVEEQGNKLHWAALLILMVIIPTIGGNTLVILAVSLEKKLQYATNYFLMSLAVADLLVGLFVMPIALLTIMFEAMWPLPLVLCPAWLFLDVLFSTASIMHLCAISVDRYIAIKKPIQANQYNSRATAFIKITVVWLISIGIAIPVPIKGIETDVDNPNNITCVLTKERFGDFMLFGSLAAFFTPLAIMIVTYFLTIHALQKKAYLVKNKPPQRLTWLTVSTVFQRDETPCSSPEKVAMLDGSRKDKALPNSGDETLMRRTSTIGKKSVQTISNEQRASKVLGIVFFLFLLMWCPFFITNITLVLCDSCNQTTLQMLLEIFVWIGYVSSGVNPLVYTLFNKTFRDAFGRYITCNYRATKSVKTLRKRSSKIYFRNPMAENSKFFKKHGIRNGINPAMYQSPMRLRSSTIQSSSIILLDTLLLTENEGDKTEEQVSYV

5-HT2C receptor = molecular target: T3, 5-HT2C receptor (Homo sapiens, UniProt P28335); assay: cell-based
T3 construct: expressed in transfected cells; host or cells: HEK293T
T3 sequence (P28335 33-458): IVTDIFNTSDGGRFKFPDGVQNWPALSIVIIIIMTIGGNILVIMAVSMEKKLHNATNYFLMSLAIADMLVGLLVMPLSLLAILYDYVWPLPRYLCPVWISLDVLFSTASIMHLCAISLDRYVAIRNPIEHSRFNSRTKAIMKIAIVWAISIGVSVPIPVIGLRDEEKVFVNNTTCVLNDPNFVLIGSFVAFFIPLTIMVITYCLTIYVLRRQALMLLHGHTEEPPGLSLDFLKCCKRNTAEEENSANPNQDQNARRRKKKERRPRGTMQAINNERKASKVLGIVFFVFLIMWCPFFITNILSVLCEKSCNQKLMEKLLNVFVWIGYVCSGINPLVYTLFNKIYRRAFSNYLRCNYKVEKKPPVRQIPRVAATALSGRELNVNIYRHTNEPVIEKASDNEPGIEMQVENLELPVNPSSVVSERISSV

[1] = Table 4, at least three replicate trials
[2] = Table 4, relative to 4-hydroxytryptamine, at least three replicate trials, read-out: 5-HT2A BRET EC50
[3] = Table 4, efficacy relative to 4-hydroxytryptamine, at least three replicate trials
[4] = Table 4, relative to 4-hydroxytryptamine, at least three replicate trials, read-out: 5-HT2C BRET EC50

Row | Compound | EC50 (5-HT2A receptor) | 5-HT2A BRET Eff % (5-HT2A receptor; [1]) | 5-HT2B BRET Eff % (5-HT2B receptor) | 5-HT2B BRET EC50 (nM) (5-HT2B receptor) | 5-HT2C BRET Eff % (5-HT2C receptor) | EC50 (5-HT2C receptor) | EC50 (5-HT2B receptor; 5-HT2B BRET EC50 (nM)) | EC50 (5-HT2A receptor; [2]) | 5-HT2C BRET Eff % (5-HT2C receptor; [3]) | EC50 (5-HT2C receptor; [4]) | 5-HT2A BRET EC50 (nM) (5-HT2A receptor; Table 4, relative to 4-hydroxytryptamine, at least three replicate trials) | EC50 (5-HT2B receptor; read-out: 5-HT2B BRET EC50)
1 | COc1ccc(C)c2[nH]cc(CCN(C)C)c12 [Compound 26, [2-(4-Methoxy-7-methylindol-3-yl)ethyl]dimethylamine] | 95 nM | 68% | inactive | inactive | 113% | 3.5 nM | – | – | – | – | – | –
2 | Cc1cc(F)c(O)c2c(CCN(C)C)c[nH]c12 [Compound 30] | – | 64% | 8% | – | – | – | – | – | – | – | – | –
3 | Cc1c(F)cc(O)c2c(CCN(C)C)c[nH]c12 [Compound 33, 3-[2-(Dimethylamino)ethyl]-6-fluoro-7-methylindol-4-ol] | 20 nM | 78% | inactive | inactive | 102% | 1.4 nM | – | – | – | – | – | –
4 | COc1cc(F)c(C)c2[nH]cc(CCN(C)C)c12 [Compound 34, [2-(6-Fluoro-4-methoxy-7-methylindol-3-yl)ethyl]dimethylamine] | 16.9 nM | 84% | inactive | inactive | 94% | 1.8 nM | – | – | – | – | – | –
5 | CN(C)CCc1c[nH]c2cc(F)cc(O)c12 [Compound 36, 3-[2-(Dimethylamino)ethyl]-6-fluoroindol-4-ol] | 2.9 nM | 92% | 62% | – | 93% | 1.7 nM | 4.2 nM | – | – | – | – | –
6 | Cc1cc(O)c2c(CCN(C)C)c[nH]c2c1 [Compound 37, 3-[2-(Dimethylamino)ethyl]-6-methylindol-4-ol] | 59 nM | 88% | 41% | – | 95% | 1.5 nM | 189 nM | – | – | – | – | –
7 | Cc1ccc(OCc2ccc(C(F)(F)F)cc2)c2c(CCN(C)C)c[nH]c12 [Compound 39, Dimethyl[2-[7-methyl-4-[4-(trifluoromethyl)benzyloxy]indol-3-yl]ethyl]amine] | – | 90% | inactive | inactive | – | – | – | 7660 nM | 81% | 131 nM | – | –
8 | CN(C)CCc1c[nH]c2c(C#N)ccc(O)c12 [Compound 64, 3-[2-(Dimethylamino)ethyl]-4-hydroxyindole-7-carbonitrile] | 267 nM | 49% | inactive | inactive | 79% | 88 nM | – | – | – | – | – | –
9 | CN(C)CCc1c[nH]c2c(C(N)=O)ccc(O)c12 [Compound 65, 3-[2-(Dimethylamino)ethyl]-4-hydroxyindole-7-carboxamide] | – | inactive | inactive | inactive | – | – | – | – | 69% | 9960 nM | inactive | –
10 | Cc1ccc(O)c2c(C[C@H]3CCN3C)c[nH]c12 [Compound 77, 7-Methyl-3-[((S)-1-methylazetidin-2-yl)methyl]indol-4-ol] | – | 69% | 41% | – | – | – | – | 49 nM | 66% | 7.3 nM | – | 57 nM
11 | Cc1cc2c(c3c(CCN)c[nH]c13)CCCO2 [Compound 110] | – | 91% | 63% | – | – | – | – | 277 nM | 96% | 69 nM | – | 139 nM
12 | CN(C)CCc1cn2c3c(cccc13)OCC2 [Compound 135, [2-(2,3-Dihydro-[1,4]oxazino[2,3,4-hi]indol-6-yl)ethyl]dimethylamine Hydrochloride] | – | 76% | 42% | – | – | – | – | 767 nM | 96% | 9 nM | – | 10.7 nM
13 | CN(C)CCc1c[nH]c2cccc(O)c12 [psilocin, reference compound] | – | 82% | 63% | – | – | – | – | – | – | – | – | –
